{"source": "patent US6803466B1", "about": "“HIV/FIV protease inhibitors having a small P3 residue” (The Scripps Research Institute, priority 1997, dated 2004)", "key": {"[1]": {"system": "MT-2 cells", "assay": "Toxicity to host cells of the HIV assay", "assay_type": "cell-based", "method": "The results from tissue culture assays against SIV (FIG. 14) and HIV (FIG. 14) were equally encouraging. […] The effectiveness of compound 1200 against HIV was measured by determining the percentage of viable cells remaining in culture over time in the presence and absence of drug (FIG. 14). In the control, HIV caused formation of multinucleated syncytia and 100% cell death by 9 days post infection. However, the cells cultured with 1 μg/ml (1.1 μM) or 5 μg/ml (5.5 μM) of inhibitor 1200 remained 100% viable after 1 month, identical to results obtained in the absence of virus infection. To test for virus in these cultures, supernatants were removed and added to 1×10^5 uninfected MT-2 cells after a 1:5 dilution with fresh CM. […]\nWEAU-1.6, a kind gift of George Shaw, University of Alabama (^18), a CXCR4 utilizing isolate, was used for all studies. […] For testiing of the antiviral efficacy of compound 1200 in MT-2 were assessed every day using a Olympus (model) inverted microscope equipped with phase contrast objectives. […] A total of 200 cells were counted in each well, and when syncytia were noted, cells were removed and tested for viability by using trypan-blue. Results are expressed as the average of viable cells."}, "[2]": {"system": "uninfected 174×CEM cells", "assay": "Effect on uninfected cells of the SIV assay", "assay_type": "cell-based", "conditions": "10, 1.0, 0.1 and 0.001 μg/ml", "method": "Cells were acutely infected with approximately 400 TCID50 units of SIVmac251 for 90 min at 37° C. The cells were collected by centrifugation, washed twice with medium to remove free virus, then plated in 0.45 ml medium in 48-well tissue culture plates, at 10^5 cells per well. Compound 1200, prepared as a 10 mg/ml stock in DMSO, was then added to final concentrations of 10, 1.0, 0.1, and 0.001 μg/ml final concentrations, in triplicate cultures. Triplicate control cultures received medium only."}, "[3]": {"system": "HIV WEAU-1.6 in MT-2 cells", "assay": "microbe, parasite or virus in culture", "assay_type": "cell-based", "method": "The results from tissue culture assays against SIV (FIG. 14) and HIV (FIG. 14) were equally encouraging. […] The effectiveness of compound 1200 against HIV was measured by determining the percentage of viable cells remaining in culture over time in the presence and absence of drug (FIG. 14). In the control, HIV caused formation of multinucleated syncytia and 100% cell death by 9 days post infection. However, the cells cultured with 1 μg/ml (1.1 μM) or 5 μg/ml (5.5 μM) of inhibitor 1200 remained 100% viable after 1 month, identical to results obtained in the absence of virus infection. To test for virus in these cultures, supernatants were removed and added to 1×10^5 uninfected MT-2 cells after a 1:5 dilution with fresh CM. […] In contrast, when 2×10^5 infected MT-2 cells that had been treated with compound 1200 for two weeks were removed and replated in fresh medium with or without compound 1200 only MT-2 cells cultured in the absence of compound 1200 were dead within 4 days (data not shown). […] Cultures are being carried continuously in the presence of compound 12 to look for resistance development. Tests are also underway to determine the level of efficacy of the compound against a defined panel of drug-resistant HIVs.\nWEAU-1.6, a kind gift of George Shaw, University of Alabama (^18), a CXCR4 utilizing isolate, was used for all studies. 2×10^5 MT-2 cells in 0.1 ml were infected for 4 hr, at 37° C., using WEAU-1.6 at 25 TCID50. Before establishing cultures for inhibitor assessment infected cells were washed 3 times with complete medium (CM), which was RPMI-1640 supplemented with 10% FBS, […], 200 mM L-glutamine, and […] of gentamicin sulfate, to remove any unbound virus. For inhibitor assessment cultures were established in duplicate or triplicate using 5×10^4 infected cells and 1×10^5 uninfected cells in a total volume of 1.5 mls in Costar 6 well-plates. Once cultures were established they were split 1:4 every 3 days, and given fresh CM. Compound 12 (from a 10 mg/ml stock in DMSO) was added at […] at initiation of the culture and after each split. For testiing of the antiviral efficacy of compound 1200 in MT-2 were assessed every day using a Olympus (model) inverted microscope equipped with phase contrast objectives. When MT-2 cells are infected with WEAU-1.6 they form syncytia and die with in 24 hours, events easily discernible visually. A total of 200 cells were counted in each well, and when syncytia were noted, cells were removed and tested for viability by using trypan-blue. Results are expressed as the average of viable cells."}, "[4]": {"system": "FIV-PPR in feline T-cells (104-C1)", "assay": "Ex vivo inhibitor analysis against FIV, pelletable reverse transcriptase in culture supernatant", "assay_type": "cell-based, feline immunodeficiency virus", "conditions": "for FIV replication, pelletable reverse transcriptase: feline T-cells, 1 month", "method": "For FIV, the assays were performed in FIV-infected feline T-cells which were cultured in the presence of compound 1200 at different concentrations over the course of 1 month. Each data in FIG. 14 represents the amount of pelletable FIV reverse transcriptase in the culture supernatant. […] After one month, the drug-treated cultures were split and replated with and without compound 1200.\nThe lymphocytic cell line 104-C1 (provided by C. Grant) was used as the target for infection. Cells were cultured in RPMI-1640 media supplemented with 10% FBS, 200 μM L-Glutamine, 1×MEM-Vitamins, 100 μM Sodium Pyruvate, 1×Non-Essential Amino Acids, 5.5×10−5M b-ME, 50 μg/ml Gentamicin, 50 U/ml human recombinant Interleukin-2 (provided by Hoffmann-LaRoche) and 7.5 μg/ml Concanavalin-A. For inhibitor assessment, 5×10^6 cells were infected with FIV-PPR (4×105 RT units) in 1 mL culture for 2 hr at 37° C. […] The cells were then washed with Hanks-buffered saline solution (HBSS) and resuspended in 10 ml of complete medium. The compound 1200 (10 mg/mL in DMSO) was then added to final concentrations of 0.1, 0.5, 1, and 5 μg/ml in duplicate. The cells were then incubated at 37° C. The culture supernatants were monitored for the presence of pelletable reverse transcriptase activity at weekly intervals, as follows. Cell-free culture supernatants (4 ml) were centrifuged at 60K for 30 min and the pellets were resuspended in 100 μl of lysis buffer containing 40 mM TrisHCl (pH 8.1), 360 mM NaCl, 20 mM DTT and 0.2% NP40. Twenty five μl of lysate was added to 25 μl of a mixture containing polyrA-pdT (Pharmacia, Piscataway, N.J.), MgCl2, and 3H-labeled deoxythymidine 5′-triphosphate (DuPont NEN, Boston, Mass.), and incubated for 1 hr at 37° C. The mixture was spotted on DE81 paper, air-dried, fixed in 0.1 M sodium pyrophosphate, washed three times in 0.3 M ammonium formate, and an additional time in 95% ethanol. The paper was then dried and counted on a scintillation counter.\nCells were split 1:5 after the second, third, and fourth time points and fresh inhibitor was added at the appropriate concentration at each of these intervals. The data were expressed as values +/−standard deviation of the mean."}, "[5]": {"system": "82F/84V mutant", "assay": "Cell culture IC90, 82F/84V mutant", "assay_type": "cell-based, HIV", "conditions": "Human immunodeficiency virus 1, read-out: IC90 against the 82F/84V mutant"}, "[6]": {"conditions": "Human immunodeficiency virus 1, MT2, read-out: viable cells remaining in culture"}}}
{"compound": "CC(C)[C@H](NC(=O)[C@H](C)NC(=O)OCc1ccccc1)C(=O)N[C@@H](Cc1ccccc1)[C@@H](O)[C@H](O)[C@H](Cc1ccccc1)NC(=O)[C@@H](NC(=O)[C@H](C)NC(=O)OCc1ccccc1)C(C)C", "note": "[Compound 1b]", "values": [{"measurement": "toxicity to host cells", "setting": "[1]", "result": "minimal toxicity"}, {"measurement": "effects on uninfected cells", "setting": "[2]", "result": "no effects noted"}, {"measurement": "inhibition of HIV infection in tissue culture (in words)", "setting": "[3]", "result": "strongly inhibits"}, {"measurement": "free virus in supernatants, transfer to uninfected MT-2 cells", "setting": "[3]; 1:5 dilution, after 3 weeks", "result": "remained uninfected"}, {"measurement": "viability at 1.1 µM", "setting": "[3]; [6]", "result": 100, "unit": "%"}, {"measurement": "viability at 5.5 µM", "setting": "[3]; [6]", "result": 100, "unit": "%"}, {"measurement": "prevention of FIV infection in tissue culture (in words)", "setting": "[4]", "result": "strongly inhibits"}, {"measurement": "FIV replication, pelletable reverse transcriptase", "setting": "[4]; 1.0 μg/ml (1.1 μM)", "result": "most effective"}, {"measurement": "virus after drug-treated cultures were split and replated with and without drug", "setting": "[4]; after one month of treatment, two weeks in culture", "result": "No virus was detected"}, {"measurement": "resistance development against the drug", "setting": "[4]; eight weeks of continuous culture", "result": "No sign of resistance development"}, {"measurement": "FIV replication, pelletable reverse transcriptase", "setting": "[4]", "result": "markedly inhibit"}, {"measurement": "IC90", "setting": "[5]", "result": 900, "unit": "nM"}]}
